Tested on: T-47D spheroids with HUVEC/MSC, viability
Assay: Anticancer human tumor T-47D cell line growth inhibition [PI3K];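 note: spheroids exposed to agents for seven days before reading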;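 for viability, T/C: percent of DMSO vehicle control luminescence so 100% = untreated growth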
Settings: for IC50: curve of first compound; for viability, T/C: stronger effect = lower value
Procedure, shortened: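 High-throughput combination screen: PI3K inhibitors crossed with targeted small molecules on complex spheroids of tumor cells, HUVEC and MSCs at 37 degrees C, 5% CO2. Top concentration was at or near clinical Cmax (otherwise 10 microM), with half-log decrements.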

[1] = second compound 0.00316 µM, first compound 0.0316 µM
[2] = second compound 0.00316 µM, first compound 0.1 µM
[3] = second compound 0.00316 µM, first compound 0.316 µM
[4] = second compound 0.00316 µM, first compound 1 µM
[5] = second compound 0.00316 µM, first compound 3.16 µM
[6] = second compound 0.00316 µM, first compound 10 µM
[7] = second compound 0.01 µM, first compound 0.0316 µM
[8] = second compound 0.01 µM, first compound 0.1 µM
[9] = second compound 0.01 µM, first compound 0.316 µM
[10] = second compound 0.01 µM, first compound 1 µM
[11] = second compound 0.01 µM, first compound 3.16 µM
[12] = second compound 0.01 µM, first compound 10 µM
[13] = second compound 0.0316 µM, first compound 0.0316 µM
[14] = second compound 0.0316 µM, first compound 0.1 µM
[15] = second compound 0.0316 µM, first compound 0.316 µM
[16] = second compound 0.0316 µM, first compound 1 µM
[17] = second compound 0.0316 µM, first compound 3.16 µM
[18] = second compound 0.0316 µM, first compound 10 µM
[19] = second compound 0.1 µM, first compound 0.0316 µM
[20] = second compound 0.1 µM, first compound 0.1 µM
[21] = second compound 0.1 µM, first compound 0.316 µM
[22] = second compound 0.1 µM, first compound 1 µM
[23] = second compound 0.1 µM, first compound 3.16 µM
[24] = second compound 0.1 µM, first compound 10 µM
[25] = second compound 0.316 µM, first compound 0.0316 µM
[26] = second compound 0.316 µM, first compound 0.1 µM
[27] = second compound 0.316 µM, first compound 0.316 µM
[28] = second compound 0.316 µM, first compound 1 µM
[29] = second compound 0.316 µM, first compound 3.16 µM
[30] = second compound 0.316 µM, first compound 10 µM
[31] = second compound 1 µM, first compound 0.0316 µM
[32] = second compound 1 µM, first compound 0.1 µM
[33] = second compound 1 µM, first compound 0.316 µM
[34] = second compound 1 µM, first compound 1 µM
[35] = second compound 1 µM, first compound 3.16 µM
[36] = second compound 1 µM, first compound 10 µM

C[C@@H](NC(=O)c1ncnc(N)c1Cl)c1ncc(C(=O)Nc2cc(C(F)(F)F)c(Cl)cn2)s1 + CC(Nc1ccc2c(c1)OCCn1cc(N3C(=O)OCC3C(F)F)nc1-2)C(N)=O
IC50 (second compound 0.00316 µM): > 10 µM
IC50 (second compound 0.01 µM): > 10 µM
IC50 (second compound 0.0316 µM): > 10 µM
IC50 (second compound 0.1 µM): > 10 µM
IC50 (second compound 0.316 µM): > 10 µM
IC50 (second compound 1 µM): > 10 µM
viability, T/C [1]: 110%
viability, T/C [2]: 92.2%
viability, T/C [3]: 87.9%
viability, T/C [4]: 79.2%
viability, T/C [5]: 94.5%
viability, T/C [6]: 99.3%
viability, T/C [7]: 104%
viability, T/C [8]: 85.3%
viability, T/C [9]: 87.4%
viability, T/C [10]: 83.3%
viability, T/C [11]: 113%
viability, T/C [12]: 101%
viability, T/C [13]: 95.2%
viability, T/C [14]: 87.3%
viability, T/C [15]: 83.8%
viability, T/C [16]: 86.2%
viability, T/C [17]: 91.4%
viability, T/C [18]: 94.7%
viability, T/C [19]: 79.8%
viability, T/C [20]: 82%
viability, T/C [21]: 83.3%
viability, T/C [22]: 97.1%
viability, T/C [23]: 97.4%
viability, T/C [24]: 94.4%
viability, T/C [25]: 69.4%
viability, T/C [26]: 79.6%
viability, T/C [27]: 75.2%
viability, T/C [28]: 69.8%
viability, T/C [29]: 71.8%
viability, T/C [30]: 74.3%
viability, T/C [31]: 52.9%
viability, T/C [32]: 53.4%
viability, T/C [33]: 65%
viability, T/C [34]: 57.9%
viability, T/C [35]: 62.3%
viability, T/C [36]: 65.8%

C[C@@H](NC(=O)c1ncnc(N)c1Cl)c1ncc(C(=O)Nc2cc(C(F)(F)F)c(Cl)cn2)s1 + Cc1nc(NC(=O)N2CCCC2C(N)=O)sc1-c1ccnc(C(C)(C)C(F)(F)F)c1
IC50 (second compound 0.0316 µM): > 10 µM
IC50 (second compound 0.1 µM): > 10 µM
IC50 (second compound 0.316 µM): > 10 µM
IC50 (second compound 1 µM): > 10 µM
IC50 (second compound 3.16 µM): > 10 µM
IC50 (second compound 10 µM): < 0.0316 µM
viability, T/C [13]: 108%
viability, T/C [14]: 99.6%
viability, T/C [15]: 88.5%
viability, T/C [16]: 87.2%
viability, T/C [17]: 88%
viability, T/C [18]: 102%
viability, T/C [19]: 109%
viability, T/C [20]: 80.1%
viability, T/C [21]: 105%
viability, T/C [22]: 80.6%
viability, T/C [23]: 93%
viability, T/C [24]: 99.5%
viability, T/C [25]: 94.3%
viability, T/C [26]: 99.5%
viability, T/C [27]: 109%
viability, T/C [28]: 86.8%
viability, T/C [29]: 97.7%
viability, T/C [30]: 97.3%
viability, T/C [31]: 88%
viability, T/C [32]: 86.7%
viability, T/C [33]: 90.4%
viability, T/C [34]: 91.4%
viability, T/C [35]: 95.6%
viability, T/C [36]: 100%
viability, T/C (second compound 3.16 µM, first compound 0.0316 µM): 78%
viability, T/C (second compound 3.16 µM, first compound 0.1 µM): 69.3%
viability, T/C (second compound 3.16 µM, first compound 0.316 µM): 68.1%
viability, T/C (second compound 3.16 µM, first compound 1 µM): 64%
viability, T/C (second compound 3.16 µM, first compound 3.16 µM): 74%
viability, T/C (second compound 3.16 µM, first compound 10 µM): 73.2%
viability, T/C (second compound 10 µM, first compound 0.0316 µM): 36.7%
viability, T/C (second compound 10 µM, first compound 0.1 µM): 37.1%
viability, T/C (second compound 10 µM, first compound 0.316 µM): 41.8%
viability, T/C (second compound 10 µM, first compound 1 µM): 36.7%
viability, T/C (second compound 10 µM, first compound 3.16 µM): 40%
viability, T/C (second compound 10 µM, first compound 10 µM): 46.6%

Cn1ncnc1[C@H]1c2n[nH]c(=O)c3cc(F)cc(c23)N[C@@H]1c1ccc(F)cc1 + COc1c(OCCCN2CCOCC2)ccc2c3n(c(=NC(=O)c4cnc(N)nc4)nc12)CCN3
IC50 (second compound 0.00316 µM): > 0.1 µM
IC50 (second compound 0.01 µM): > 0.1 µM
IC50 (second compound 0.0316 µM): > 0.1 µM
IC50 (second compound 0.1 µM): < 0.000316 µM
IC50 (second compound 0.316 µM): < 0.000316 µM
IC50 (second compound 1 µM): < 0.000316 µM
viability, T/C (second compound 0.00316 µM, first compound 0.000316 µM): 102%
viability, T/C (second compound 0.00316 µM, first compound 0.001 µM): 87.4%
viability, T/C (second compound 0.00316 µM, first compound 0.00316 µM): 112%
viability, T/C (second compound 0.00316 µM, first compound 0.01 µM): 104%
viability, T/C [1]: 109%
viability, T/C [2]: 101%
viability, T/C (second compound 0.01 µM, first compound 0.000316 µM): 114%
viability, T/C (second compound 0.01 µM, first compound 0.001 µM): 83.9%
viability, T/C (second compound 0.01 µM, first compound 0.00316 µM): 93.7%
viability, T/C (second compound 0.01 µM, first compound 0.01 µM): 79.3%
viability, T/C [7]: 99.5%
viability, T/C [8]: 94.1%
viability, T/C (second compound 0.0316 µM, first compound 0.000316 µM): 72.9%
viability, T/C (second compound 0.0316 µM, first compound 0.001 µM): 72.8%
viability, T/C (second compound 0.0316 µM, first compound 0.00316 µM): 85%
viability, T/C (second compound 0.0316 µM, first compound 0.01 µM): 71.4%
viability, T/C [13]: 75.1%
viability, T/C [14]: 64.8%
viability, T/C (second compound 0.1 µM, first compound 0.000316 µM): 40.9%
viability, T/C (second compound 0.1 µM, first compound 0.001 µM): 47.6%
viability, T/C (second compound 0.1 µM, first compound 0.00316 µM): 41.2%
viability, T/C (second compound 0.1 µM, first compound 0.01 µM): 34.1%
viability, T/C [19]: 40.7%
viability, T/C [20]: 39%
viability, T/C (second compound 0.316 µM, first compound 0.000316 µM): 18.9%
viability, T/C (second compound 0.316 µM, first compound 0.001 µM): 20.8%
viability, T/C (second compound 0.316 µM, first compound 0.00316 µM): 15.2%
viability, T/C (second compound 0.316 µM, first compound 0.01 µM): 17.1%
viability, T/C [25]: 14.8%
viability, T/C [26]: 15.1%
viability, T/C (second compound 1 µM, first compound 0.000316 µM): 5.24%
viability, T/C (second compound 1 µM, first compound 0.001 µM): 6.61%
viability, T/C (second compound 1 µM, first compound 0.00316 µM): 7.38%
viability, T/C (second compound 1 µM, first compound 0.01 µM): 7.19%
viability, T/C [31]: 5.03%
viability, T/C [32]: 6.71%

Cn1nccc1Nc1nccc(-c2ccn(C(CO)c3ccc(Cl)c(F)c3)c(=O)c2)n1 (stereo not drawn) + CC(Nc1ccc2c(c1)OCCn1cc(N3C(=O)OCC3C(F)F)nc1-2)C(N)=O
IC50 (second compound 0.00316 µM): > 10 µM
IC50 (second compound 0.01 µM): > 10 µM
IC50 (second compound 0.0316 µM): > 10 µM
IC50 (second compound 0.1 µM): > 10 µM
IC50 (second compound 0.316 µM): > 10 µM
IC50 (second compound 1 µM): > 10 µM
viability, T/C [1]: 98.6%
viability, T/C [2]: 97.4%
viability, T/C [3]: 93.3%
viability, T/C [4]: 96%
viability, T/C [5]: 113%
viability, T/C [6]: 109%
viability, T/C [7]: 106%
viability, T/C [8]: 92.8%
viability, T/C [9]: 104%
viability, T/C [10]: 106%
viability, T/C [11]: 111%
viability, T/C [12]: 99.6%
viability, T/C [13]: 86.1%
viability, T/C [14]: 85.2%
viability, T/C [15]: 93.2%
viability, T/C [16]: 99.7%
viability, T/C [17]: 105%
viability, T/C [18]: 85.7%
viability, T/C [19]: 103%
viability, T/C [20]: 100%
viability, T/C [21]: 89.4%
viability, T/C [22]: 92.9%
viability, T/C [23]: 87%
viability, T/C [24]: 92.3%
viability, T/C [25]: 71.8%
viability, T/C [26]: 71.3%
viability, T/C [27]: 65.4%
viability, T/C [28]: 67%
viability, T/C [29]: 69.4%
viability, T/C [30]: 71.3%
viability, T/C [31]: 65.7%
viability, T/C [32]: 60%
viability, T/C [33]: 52%
viability, T/C [34]: 47.4%
viability, T/C [35]: 58.1%
viability, T/C [36]: 57.1%

From PubChem BioAssay AID1963959 (Molecular Pharmacology Branch, DTP, NCI, 2024)
